The results in this text go back to patent US20240174644A1, “QUINOXALINE UREA INHIBITORS OF IKK-BETA AND NF-KB” (BOARD OF REGENTS OF THE UNIVERSITY OF NEBRASKA, priority 2021, published 2024).

The test system of assay [1] is MM1S cells. Put plainly: Growth inhibition assay in MM1S cells (Presto blue). In kind it is cell-based. The following applies: Homo sapiens, MM1.S, 120 h, MM1S cells (multiple myeloma model), 5-day incubation, triplicate. The protocol:
MM1S cells were seeded (20K cells/well) and increasing concentrations of the inhibitors were added to these cells in triplicate. The plates were incubated for 5 -days after which Presto blue (544/590 ex/em wavelengths) was added and plates read after additional 15 min incubation at 37° C. The IC50 values were derived by curve fitting the data.

The subject of assay [2] is caspase 3/7. Put plainly: Caspase 3/7 activation assay in MM1S cells (Apo-One homogeneous caspase 3/7 assay). The following applies: inhibitor 10 μM, 24 h, fold change relative to the DMSO control. In kind it is cell-based. The protocol: MM1 S cells were seeded (25K cells/well) and inhibitors (10 μM) were added to these cells in triplicate. The plates were incubated for 24 h. Under multiplexing conditions, the cell viability using Alamar Blue assay and caspase activity using Apo-One homogeneous caspase 3/7 assay was determined. Data represented as fold change relative to the DMSO control.

Usually IC50 stands for the concentration that inhibits the measured activity by half. Low readings indicate greater potency in that assay, high ones weaker potency in that assay.

SMILES strings stand for the structures.

In the case of `Cn1cc(-c2cnc3ccc(NC(=O)Nc4ccc(F)c(Br)c4)cc3n2)cn1` [Compound 1], the IC50 in assay [1] worked out at 5.43 ± 0.16 µM.

On to `Cn1cc(-c2cnc3ccc(NC(=O)Nc4cccc(Br)c4)cc3n2)cn1` [Compound 2], for which, in assay [1], the IC50 is 2.83 ± 0.09 µM. In assay [2], the “Caspase 3/7 activation” value is recorded as 1.06 ± 0.03 fold change.

Turning to `Cn1cc(-c2cnc3ccc(NC(=O)Nc4ccc(F)cc4)cc3n2)cn1` [Compound 3, 1-(4-fluorophenyl)-3-(3-(1-methyl-1H-pyrazol-4-yl)quinoxalin-6-yl)urea], the IC50 in assay [1] was greater than 20 µM. The “Caspase 3/7 activation” value in assay [2] was found to be 1.03 ± 0.06 fold change.

Turning to `Cn1cc(-c2cnc3ccc(NC(=O)Cc4ccc(F)c(Br)c4)cc3n2)cn1` [Compound 4], in assay [1], the IC50 turned out to be 4.67 ± 0.09 µM.

`Cn1cc(-c2ccc3ccc(NC(=O)Nc4ccc(F)c(Br)c4)cc3n2)cn1` [Compound 5] yielded an IC50 in assay [1] of 5.56 ± 0.66 µM.

Turning to `Cn1cc(-c2cnc3ccc(NC(=O)Nc4ccc(F)c(Br)c4)cc3c2)cn1` [Compound 6, 1-(3-Bromo-4-fluorophenyl)-3-(3-(1-methyl-1H-pyrazol-4-yl)quinolin-6-yl)urea], half-maximal inhibition in assay [1] (IC50) was put at 10.6 ± 0.4 µM. Also, the “Caspase 3/7 activation” value in assay [2] was 1.36 ± 0.04 fold change.

`Cn1ccc(-c2cnc3ccc(NC(=O)Nc4ccc(F)c(Br)c4)cc3n2)c1` [Compound 7, 1-(3-Bromo-4-fluorophenyl)-3-(3-(1-methyl-1 H-pyrrol-3-yl)quinoxalin-6-yl)urea] had an IC50 in assay [1] of 2.85 ± 0.09 µM. Further, in assay [2], the “Caspase 3/7 activation” value is on record as 1.51 ± 0.01 fold change.

Turning to `Cn1cc(-c2cnc3ccc(NC(=O)Nc4ccc(F)c(C(F)(F)F)c4)cc3n2)cn1` [Compound 8], half-maximal inhibition in assay [1] (IC50) required 5.38 ± 0.13 µM. Besides, the “Caspase 3/7 activation” value in assay [2] turned out to be 1.96 ± 0.05 fold change.

The compound `Cn1cc(-c2cnc3ccc(NC(=O)Nc4ccc(F)c(C(F)(F)F)c4F)cc3n2)cn1` [Compound 9] had an IC50 in assay [1] of 0.75 ± 0.01 µM. In assay [2], the “Caspase 3/7 activation” value is 9.79 ± 2.47 fold change.
